In the assay the target is T1, SMYD3 (Homo sapiens, UniProt Q9H7B4).
T1 sequence (Q9H7B4 1-428): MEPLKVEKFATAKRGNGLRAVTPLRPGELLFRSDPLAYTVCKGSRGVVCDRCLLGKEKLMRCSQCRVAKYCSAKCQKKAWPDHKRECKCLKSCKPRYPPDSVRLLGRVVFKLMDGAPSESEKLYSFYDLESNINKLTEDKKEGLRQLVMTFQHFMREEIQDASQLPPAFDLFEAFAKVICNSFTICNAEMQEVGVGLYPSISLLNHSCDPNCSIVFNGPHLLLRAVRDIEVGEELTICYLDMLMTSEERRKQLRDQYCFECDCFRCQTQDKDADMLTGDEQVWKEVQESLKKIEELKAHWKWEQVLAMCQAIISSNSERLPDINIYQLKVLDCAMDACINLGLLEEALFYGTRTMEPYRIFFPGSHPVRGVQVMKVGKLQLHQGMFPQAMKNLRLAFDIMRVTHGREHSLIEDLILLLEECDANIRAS
The assay can be described thus: SMYD3 biochemical assay (MTase-Glo, MAP3K2 peptide substrate). As to conditions: Table 3; MTase assay, MAP3K2 peptide substrate; read-out: IC50. The essentials:
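Luminescent readout of SAH production (coupled SAH→ATP conversion, MTase-Glo) after SMYD3 reacted 30 min at room temperature with 1.0 µM SAM and 10 µM MAP3K2 peptide, both final. Non-linear regression gave IC50 values.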

In general, IC50 refers to the point on the concentration scale where inhibition reaches its midpoint. Consider `CCCOC(=O)N1CCN(C(=O)c2ccc3c(Cl)cc(-c4ccc(F)c(C(N)=O)c4)nc3c2)CC1` [B151, Propyl 4-(2-(3-carbamoyl-4-fluorophenyl)-4-chloroquinoline-7-carbonyl)piperazine-1-carboxylate], for which the IC50 is 0.62 µM.

Turning to `CCCOC(=O)N1CCN(C(=O)c2ccc3c(Cl)c4c(nc3c2)CCC(CCN(C)C)C4)[C@@H](C)C1` (stereo partly drawn) [A082, Propyl (3S)-4-(9-chloro-7-(2-(dimethylamino)ethyl)-5,6,7,8-tetrahydroacridine-3-carbonyl)-3-methylpiperazine-1-carboxylate], the IC50 amounted to 0.51 µM.

On to `CCCOC(=O)N1CCN(C(=O)c2ccc3c(Cl)c(C)c(-c4ccc(OC)cc4)nc3c2)[C@@H](C)C1` [B026, Propyl (S)-4-(4-chloro-2-(4-methoxyphenyl)-3-methylquinoline-7-carbonyl)-3-methylpiperazine-1-carboxylate], for which the IC50 came out at 0.27 µM.

With `CCCOC(=O)N1CCN(C(=O)c2ccc3c(Cl)cc(-c4ccc5nn[nH]c5c4)nc3c2)CC1` [B164, Propyl 4-(2-(1H-benzo[d][1,2,3]triazol-6-yl)-4-chloroquinoline-7-carbonyl)piperazine-1-carboxylate], the concentration for half-maximal inhibition (IC50) turned out to be 0.36 µM.

In the case of `CC(C)(C)n1cc(C(=O)N2CCN(C(=O)c3ccc4c(Cl)cc(-c5ccccc5)nc4c3)CC2)nn1` [D008, (1-(Tert-butyl)-1H-1,2,3-triazol-4-yl)(4-(4-chloro-2-phenylquinoline-7-carbonyl)piperazin-1-yl)methanone], the IC50 worked out at 0.45 µM.

As to `CCCOC(=O)N1CCN(C(=O)c2ccc3c(Cl)cc(-c4cc(F)c(O)c(F)c4)nc3c2)[C@@H](C)C1` [B220, Propyl (S)-4-(4-chloro-2-(3,5-difluoro-4-hydroxyphenyl)quinoline-7-carbonyl)-3-methylpiperazine-1-carboxylate], the IC50 stood at 0.35 µM.

`Cc1cc(C(=O)N2C3CCCC2CN(C(=O)c2ccc4c(Cl)c5c(nc4c2)CCCC5)C3)n[nH]1` [A040, (9-Chloro-5,6,7,8-tetrahydroacridin-3-yl)(9-(5-methyl-1H-pyrazole-3-carbonyl)-3,9-diazabicyclo[3.3.1]nonan-3-yl)methanone]: the IC50 is 10.9 µM.

Take `CCCOC(=O)N1CCN(C(=O)c2ccc3c(Cl)c4c(nc3c2)CCC(C)C4)CC1` (stereo not shown) [A008, Propyl 4-(9-chloro-7-methyl-5,6,7,8-tetrahydroacridine-3-carbonyl)piperazine-1-carboxylate]: the IC50 was 1.3 µM.

For `CCCOC(=O)N1CCN(C(=O)c2ccc3c(Cl)c4c(nc3c2)CC(c2ccccc2)CC4)CC1` (stereo not shown) [A024, Propyl 4-(9-chloro-6-phenyl-5,6,7,8-tetrahydroacridine-3-carbonyl)piperazine-1-carboxylate], the IC50 was determined as 1.2 µM.

As for `CCCOC(=O)N1CCN(C(=O)c2ccc3c(Cl)cc(-c4ccc(C(C)(C)CN)cc4)nc3c2)CC1` [B285, Propyl 4-(2-(4-(1-amino-2-methylpropan-2-yl)phenyl)-4-chloroquinoline-7-carbonyl)piperazine-1-carboxylate], the IC50 is 0.013 µM.

With `CCCOC(=O)N1CCN(C(=O)c2ccc3c(Cl)c4c(nc3c2)CC(CCN2CCCC2)CC4)CC1` (stereo not shown) [A121, Propyl 4-(9-chloro-6-(2-(pyrrolidin-1-yl)ethyl)-5,6,7,8-tetrahydroacridine-3-carbonyl)piperazine-1-carboxylate], the IC50 is 0.22 µM.

Take `CCCOC(=O)N1CCN(C(=O)c2ccc3c(Cl)c4c(nc3c2)CCC(CC(=O)OC)C4)[C@@H](C)C1` (stereo partly drawn) [A084, Propyl (3S)-4-(9-chloro-7-(2-methoxy-2-oxoethyl)-5,6,7,8-tetrahydroacridine-3-carbonyl)-3-methylpiperazine-1-carboxylate]: the IC50 amounted to 0.12 µM.

Turning to `CCCOC(=O)N1CCN(C(=O)c2ccc3c(Cl)c(C)c(-c4ccc(C)cc4)nc3c2)[C@@H](C)C1` [B024, Propyl (S)-4-(4-chloro-3-methyl-2-(p-tolyl)quinoline-7-carbonyl)-3-methylpiperazine-1-carboxylate], the IC50 was determined as 0.67 µM.

For the molecule `CCCOC(=O)N1CCN(C(=O)c2ccc3c(Cl)cc(-c4cccc(N)c4)nc3c2)CC1` [B077, Propyl 4-(2-(3-aminophenyl)-4-chloroquinoline-7-carbonyl)piperazine-1-carboxylate], the IC50 turned out to be 0.12 µM.

As to `CCCOC(=O)N1CCN(C(=O)c2ccc3c(Cl)c4c(nc3c2)CCC(C(=O)OC)C4)CC1` (stereo not shown) [A029, Methyl 9-chloro-6-(4-(propoxycarbonyl)piperazine-1-carbonyl)-1,2,3,4-tetrahydroacridine-2-carboxylate], the half-maximal inhibitory concentration (IC50) was 0.86 µM.

Consider `C=CCOC(=O)N1CCN(C(=O)c2ccc3c(Cl)c4c(nc3c2)CCCC4)CC1` [A002, Allyl 4-(9-chloro-5,6,7,8-tetrahydroacridine-3-carbonyl)piperazine-a1-carboxylate], for which the IC50 is 1 µM.

For the molecule `CCCOC(=O)N1CCN(C(=O)c2ccc3c(Cl)c4c(nc3c2)CC(c2ncccc2F)CC4)C[C@H]1C` (stereo partly drawn) [A115, Propyl (2R)-4-(9-chloro-6-(3-fluoropyridin-2-yl)-5,6,7,8-tetrahydroacridine-3-carbonyl)-2-methylpiperazine-1-carboxylate], the IC50 is 0.27 µM.

As for `CCCOC(=O)N1CCN(C(=O)c2ccc3c(Cl)cc(-c4ccc(F)c(O)c4)nc3c2)CC1` [B157, Propyl 4-(4-chloro-2-(4-fluoro-3-hydroxyphenyl)quinoline-7-carbonyl)piperazine-1-carboxylate], the half-inhibitory concentration (IC50) is 0.36 µM.

With `CCCOC(=O)N1CCN(C(=O)c2ccc3c(Cl)cc(-c4cccc(CO)c4)nc3c2)C[C@H]1C` [B142, Propyl (R)-4-(4-chloro-2-(3-(hydroxymethyl)phenyl)quinoline-7-carbonyl)-2-methylpiperazine-1-carboxylate], the IC50 was determined as 0.055 µM.

Turning to `CCCOC(=O)N1CCN(C(=O)c2ccc3c(Cl)c(C)c(-c4ccc(C(N)=O)cc4)nc3c2)C[C@H]1C` [B113, Propyl (R)-4-(2-(4-carbamoylphenyl)-4-chloro-3-methylquinoline-7-carbonyl)-2-methylpiperazine-1-carboxylate], the half-inhibitory concentration (IC50) stood at 0.092 µM.

In the case of `CCCOC(=O)N1CCN(C(=O)c2ccc3c(Cl)c4c(nc3c2)CC(c2ncccc2F)CC4)CC1` (stereo not shown) [A099, Propyl 4-(9-chloro-6-(3-fluoropyridin-2-yl)-5,6,7,8-tetrahydroacridine-3-carbonyl)piperazine-1-carboxylate], the IC50 is 0.59 µM.

`CCCOC(=O)N1CCN(C(=O)c2ccc3c(Cl)c(C)c(-c4ccc(C#N)cc4)nc3c2)C[C@H]1C` [B114, Propyl (R)-4-(4-chloro-2-(4-cyanophenyl)-3-methylquinoline-7-carbonyl)-2-methylpiperazine-1-carboxylate]: the IC50 is 0.42 µM.

For `C#CCC1CCc2c(nc3cc(C(=O)N4CCN(C(=O)OCCC)C[C@@H]4C)ccc3c2Cl)C1` (stereo partly drawn) [A137, Propyl (3S)-4-(9-chloro-6-(prop-2-yn-1-yl)-5,6,7,8-tetrahydroacridine-3-carbonyl)-3-methylpiperazine-1-carboxylate], the IC50 amounted to 0.29 µM.

Turning to `CCCOC(=O)N1CCN(C(=O)c2ccc3c(Cl)c4c(nc3c2)CC(CNC(=N)N)CC4)[C@@H](C)C1` (stereo partly drawn) [A090, Propyl (3S)-4-(9-chloro-6-(guanidinomethyl)-5,6,7,8-tetrahydroacridine-3-carbonyl)-3-methylpiperazine-1-carboxylate], the IC50 was determined as 0.35 µM.

For `CCCOC(=O)N1CCN(C(=O)c2ccc3c(Cl)cc(-c4ccc(C(C)(C)O)cc4)nc3c2)CC1` [B244, Propyl 4-(4-chloro-2-(4-(2-hydroxypropan-2-yl)phenyl)quinoline-7-carbonyl)piperazine-1-carboxylate], the half-inhibitory concentration (IC50) amounted to 0.14 µM.

With `CCCOC(=O)N1CCN(C(=O)c2ccc3c(Cl)c4c(nc3c2)CCC(C#N)C4)CC1` (stereo not shown) [A046, Propyl 4-(9-chloro-7-cyano-5,6,7,8-tetrahydroacridine-3-carbonyl)piperazine-1-carboxylate], the IC50 turned out to be 0.8 µM.

With `CCCOC(=O)N1CCN(C(=O)c2ccc3c(Cl)cc(-c4cn[nH]c4)nc3c2)CC1` [B147, Propyl 4-(4-chloro-2-(1H-pyrazol-4-yl)quinoline-7-carbonyl)piperazine-1-carboxylate], the IC50 stood at 0.15 µM.

Regarding `C=CCOC(=O)N1CCN(C(=O)c2ccc3c(Cl)c4c(nc3c2)CCC4)CC1` [C002, Allyl 4-(9-chloro-2,3-dihydro-1H-cyclopenta[b]quinoline-6-carbonyl)piperazine-1-carboxylate], the IC50 came to 10 µM.

`C[C@@H]1CN(C(=O)c2ccc3c(Cl)cc(-c4ccn(C)c4)nc3c2)CCN1C(=O)C[C@H]1CCC(=O)N1` [D001, (R)-5-(2((R)-4-(4-Chloro-2-(1-methyl-1H-pyrrol-3-yl)quinoline-7-carbonyl)-2-methylpiperazin-1-yl)-2-oxoethyl)pyrrolidin-2-one]: the IC50 came to 13.6 µM.

As to `CCCOC(=O)N1CCN(C(=O)c2ccc3c(Cl)c4c(nc3c2)CC(CC#N)CC4)CC1` (stereo not shown) [A065, Propyl 4-(9-chloro-6-(cyanomethyl)-5,6,7,8-tetrahydroacridine-3-carbonyl)piperazine-1-carboxylate], the concentration for half-maximal inhibition (IC50) came out at 0.19 µM.

Take `C[C@@H]1CN(C(=O)c2ccc3c(Cl)cc(-c4ccn(C)c4)nc3c2)CCN1C(=O)c1cn(C2CC2)nn1` [D004, (R)-(4-Chloro-2-(1-methyl-1H-pyrrol-3-yl)quinolin-7-yl)(4-(1-cyclopropyl-1H-1,2,3-triazole-4-carbonyl)-3-methylpiperazin-1-yl)methanone]: the IC50 worked out at 0.013 µM.

The values above are taken from patent publication US20190071416A1, “COMPOUNDS FOR TREATMENT OF CANCER AND EPIGENETICS” (Agency For Science, Technology and Research, priority 2015, published 2019).
